The target of test [1] is T1, NAMPT (Homo sapiens, UniProt P43490). The test is described as follows: Time-Resolved Fluorescence Resonance Energy Transfer (TR-FRET) Binding Assay of NAMPT. Particulars: 6.8 nM NAMPT, 200 nM probe, equilibrated 3 hours, no substrates. In short, it runs like this:
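IC50s come from four-parameter logistic fits of control-normalized Em520/Em495 TR-FRET ratios (Ex 337 nm) against compound concentration. Before reading, enzyme, probe, antibody and compound equilibrated for 3 h at room temperature.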
For orientation: Time-resolved FRET reads energy transfer from a long-lived donor to a nearby acceptor.

The target of test [2] is T1, NAMPT. The experiment in a line: TR-FRET Binding Assay of NAMPT with PRPP. Particulars: 2 nM NAMPT, 2 nM probe, 200 µM PRPP and 2.5 mM ATP, equilibrated 16 hours. The gist of the method:
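Substrates present: PRPP at 200 µM and ATP at 2.5 mM, final, alongside 2 nM enzyme, 2 nM tracer and 1 nM terbium anti-His donor in 2% DMSO. A 16-hour equilibration preceded the time-resolved FRET read, allowing compounds to be enzymatically modified.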

The next test deals with PC3 cells. The test is described as follows: NAMPT Cell Proliferation Assay (Cell Titer Glo). The class given is cell-based. Particulars: Homo sapiens, PC-3, 120 h, incubated 5 days, cell viability. In short, it runs like this:
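Viability measured by Cell Titer Glo luminescence after 5-day exposure of attached PC3 cells to compound, dosed as 10-fold serial dilutions ([…]) in RPMI/10% FBS at 37 °C and 5% CO2. Percent inhibition fitted to sigmoidal dose-response curves for IC50.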
For orientation: In ATP-based viability assays light output follows the ATP content of the culture.

T1 sequence (P43490 whole entry): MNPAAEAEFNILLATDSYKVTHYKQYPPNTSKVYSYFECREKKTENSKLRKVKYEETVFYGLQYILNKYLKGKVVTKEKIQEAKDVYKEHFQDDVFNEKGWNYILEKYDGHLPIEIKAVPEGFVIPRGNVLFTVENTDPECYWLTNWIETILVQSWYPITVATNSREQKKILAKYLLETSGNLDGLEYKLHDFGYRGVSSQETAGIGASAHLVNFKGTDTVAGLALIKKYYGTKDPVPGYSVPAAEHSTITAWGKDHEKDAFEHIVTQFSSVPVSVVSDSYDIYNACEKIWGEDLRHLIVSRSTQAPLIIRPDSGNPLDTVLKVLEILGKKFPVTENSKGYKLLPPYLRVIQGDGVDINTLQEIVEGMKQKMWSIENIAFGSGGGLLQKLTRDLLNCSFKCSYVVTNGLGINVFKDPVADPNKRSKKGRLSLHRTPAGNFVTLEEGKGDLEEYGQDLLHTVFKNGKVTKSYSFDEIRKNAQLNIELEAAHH

The IC50 is the concentration that gives 50% inhibition. As for `CC(C)(C)OC(=O)N1CCC(c2ccc(NC(=O)N3CC(c4cccnc4)C3)cc2)C1` (stereo not drawn) [Example 59, tert-butyl 3-[4-({[3-(pyridin-3-yl)azetidin-1-yl]carbonyl}amino)phenyl]pyrrolidine-1-carboxylate], the figures for the IC50 at NAMPT [1], on NAMPT [2] and with PC3 cells were 38.5 nM, 0.364 nM and 68.5 nM, respectively.

In the case of `CC(C)(C)OC(=O)N1CC[C@H](Oc2ccc(NC(=O)N3CC(c4cccnc4)C3)cc2)C1` [Example 61, tert-butyl (3S)-3-[4-({[3-(pyridin-3-yl)azetidin-1-yl]carbonyl}amino)phenoxy]pyrrolidine-1-carboxylate], the IC50 at NAMPT [1] is 20.9 nM; at NAMPT [2], 0.31 nM; in the test with PC3 cells it was 30.7 nM.

Consider `CC(C)(C)OC(=O)N1CC(c2ccc(NC(=O)N3CC(c4cccnc4)C3)cc2)C1` [Example 62, tert-butyl 3-[4-({[3-(pyridin-3-yl)azetidin-1-yl]carbonyl}amino)phenyl]azetidine-1-carboxylate], for which the IC50 on NAMPT [1] was 91.5 nM; at NAMPT [2] it was 0.467 nM; with PC3 cells, 69.7 nM.

Turning to `CC(C)(C)OC(=O)N1CC(Oc2ccc(NC(=O)N3CC(c4cccnc4)C3)cc2)C1` [Example 63, tert-butyl 3-[4-({[3-(pyridin-3-yl)azetidin-1-yl]carbonyl}amino)phenoxy]azetidine-1-carboxylate], the IC50 came out at 44.6 nM on NAMPT [1], 0.39 nM at NAMPT [2] and 12 nM in the test with PC3 cells.

For the compound `O=C(CC1CCOCC1)N1CCC(c2ccc(NC(=O)N3CC(c4cccnc4)C3)cc2)C1` (stereo not drawn) [Example 64, 3-(pyridin-3-yl)-N-{4-[1-(tetrahydro-2H-pyran-4-ylacetyl)pyrrolidin-3-yl]phenyl}azetidine-1-carboxamide], the IC50 worked out at 52.1 nM on NAMPT [1], 0.171 nM at NAMPT [2] and 71.1 nM in the test on PC3 cells.

Regarding `O=C(Nc1ccc(C2CCN(C(=O)[C@H]3CCCO3)C2)cc1)N1CC(c2cccnc2)C1` (stereo partly drawn) [Example 67, 3-(pyridin-3-yl)-N-(4-{1-[(2R)-tetrahydrofuran-2-ylcarbonyl]pyrrolidin-3-yl}phenyl)azetidine-1-carboxamide], the IC50 on NAMPT [1] was 173 nM; at NAMPT [2], 0.171 nM; in the test on PC3 cells, 78.5 nM.

`CC(C)(O)C(=O)N1CCC(c2ccc(NC(=O)N3CC(c4cccnc4)C3)cc2)C1` (stereo not drawn) [Example 70, N-{4-[1-(2-hydroxy-2-methylpropanoyl)pyrrolidin-3-yl]phenyl}-3-(pyridin-3-yl)azetidine-1-carboxamide]: the figures for the IC50 at NAMPT [1], on NAMPT [2] and in the test with PC3 cells were 92.2 nM, 0.421 nM and 73.1 nM, respectively.

On to `O=C(Nc1ccc(C2CCN(C(=O)c3ccccc3)C2)cc1)N1CC(c2cccnc2)C1` (stereo not drawn) [Example 71, N-[4-(1-benzoylpyrrolidin-3-yl)phenyl]-3-(pyridin-3-yl)azetidine-1-carboxamide], for which the IC50 at NAMPT [1] stood at 20.1 nM; at NAMPT [2], 0.184 nM; with PC3 cells, 10.7 nM.

For the compound `O=C(CC(F)(F)F)N1CCC(c2ccc(NC(=O)N3CC(c4cccnc4)C3)cc2)C1` (stereo not drawn) [Example 72, 3-(pyridin-3-yl)-N-{4-[1-(3,3,3-trifluoropropanoyl)pyrrolidin-3-yl]phenyl}azetidine-1-carboxamide], the IC50 worked out at 65.6 nM on NAMPT [1], 0.211 nM on NAMPT [2] and 77.7 nM in the test on PC3 cells.

`O=C(Nc1ccc(C2CCN(C(=O)C3CC3)C2)cc1)N1CC(c2cccnc2)C1` (stereo not drawn) [Example 73, N-{4-[1-(cyclopropylcarbonyl)pyrrolidin-3-yl]phenyl}-3-(pyridin-3-yl)azetidine-1-carboxamide]: the figures for the IC50 at NAMPT [1], at NAMPT [2] and in the test on PC3 cells were 156 nM, 0.663 nM and 84.5 nM, respectively.

Take `O=C(Nc1ccc(O[C@@H]2CCN(C(=O)[C@@H]3CCCO3)C2)cc1)N1CC(c2cccnc2)C1` [Example 78, 3-(pyridin-3-yl)-N-[4-({(3R)-1-[(2S)-tetrahydrofuran-2-ylcarbonyl]pyrrolidin-3-yl}oxy)phenyl]azetidine-1-carboxamide]: the values for the IC50 on NAMPT [1], on NAMPT [2] and in the test on PC3 cells were 137 nM, 0.226 nM and 56 nM, respectively.

For the compound `O=C(Nc1ccc(O[C@@H]2CCN(C(=O)C3CC3)C2)cc1)N1CC(c2cccnc2)C1` [Example 85, N-(4-{[(3R)-1-(cyclopropylcarbonyl)pyrrolidin-3-yl]oxy}phenyl)-3-(pyridin-3-yl)azetidine-1-carboxamide], the concentration for half-maximal inhibition (IC50) at NAMPT [1] is 117 nM; on NAMPT [2] it was 0.325 nM; with PC3 cells, 48.9 nM.

Regarding `CC[C@H](C)C(=O)N1CC[C@@H](Oc2ccc(NC(=O)N3CC(c4cccnc4)C3)cc2)C1` [Example 86, N-[4-({(3R)-1-[(2S)-2-methylbutanoyl]pyrrolidin-3-yl}oxy)phenyl]-3-(pyridin-3-yl)azetidine-1-carboxamide], the IC50 stood at 27.4 nM at NAMPT [1], 0.244 nM at NAMPT [2] and 5.48 nM in the test with PC3 cells.

Turning to `O=C(CC1CCOCC1)N1CC[C@H](Oc2ccc(NC(=O)N3CC(c4cccnc4)C3)cc2)C1` [Example 88, 3-(pyridin-3-yl)-N-(4-{[(3S)-1-(tetrahydro-2H-pyran-4-ylacetyl)pyrrolidin-3-yl]oxy}phenyl)azetidine-1-carboxamide], the IC50 at NAMPT [1] amounted to 269 nM; at NAMPT [2], 0.58 nM; with PC3 cells it was 109 nM.

Consider `O=C(Nc1ccc(O[C@H]2CCN(C(=O)[C@@H]3CCCO3)C2)cc1)N1CC(c2cccnc2)C1` [Example 90, 3-(pyridin-3-yl)-N-[4-({(3S)-1-[(2S)-tetrahydrofuran-2-ylcarbonyl]pyrrolidin-3-yl}oxy)phenyl]azetidine-1-carboxamide], for which the IC50 on NAMPT [1] was 404 nM; on NAMPT [2] it was 0.196 nM; in the test on PC3 cells, 686 nM.

With `CC(C)(O)C(=O)N1CC[C@H](Oc2ccc(NC(=O)N3CC(c4cccnc4)C3)cc2)C1` [Example 94, N-(4-{[(3S)-1-(2-hydroxy-2-methylpropanoyl)pyrrolidin-3-yl]oxy}phenyl)-3-(pyridin-3-yl)azetidine-1-carboxamide], the IC50 at NAMPT [1] was found to be 488 nM; at NAMPT [2], 0.213 nM; in the test with PC3 cells it was 598 nM.

Regarding `CC[C@H](C)C(=O)N1CC[C@H](Oc2ccc(NC(=O)N3CC(c4cccnc4)C3)cc2)C1` [Example 98, N-[4-({(3S)-1-[(2S)-2-methylbutanoyl]pyrrolidin-3-yl}oxy)phenyl]-3-(pyridin-3-yl)azetidine-1-carboxamide], the concentration for half-maximal inhibition (IC50) at NAMPT [1] is 616 nM; at NAMPT [2], 1.19 nM; in the test on PC3 cells, 70.9 nM.

Regarding `CCCC(=O)N1CC[C@H](Oc2ccc(NC(=O)N3CC(c4cccnc4)C3)cc2)C1` [Example 99, N-(4-{[(3S)-1-butanoylpyrrolidin-3-yl]oxy}phenyl)-3-(pyridin-3-yl)azetidine-1-carboxamide], the values for the IC50 at NAMPT [1], on NAMPT [2] and with PC3 cells were 223 nM, 0.414 nM and 49.3 nM, respectively.

For the compound `O=C(CC1CCOCC1)N1CC(c2ccc(NC(=O)N3CC(c4cccnc4)C3)cc2)C1` [Example 100, 3-(pyridin-3-yl)-N-{4-[1-(tetrahydro-2H-pyran-4-ylacetyl)azetidin-3-yl]phenyl}azetidine-1-carboxamide], the IC50 on NAMPT [1] worked out at 108 nM; at NAMPT [2], 0.309 nM; with PC3 cells, 27.3 nM.

For the compound `CC(C)C(=O)N1CC(c2ccc(NC(=O)N3CC(c4cccnc4)C3)cc2)C1` [Example 101, N-{4-[1-(2-methylpropanoyl)azetidin-3-yl]phenyl}-3-(pyridin-3-yl)azetidine-1-carboxamide], the IC50 on NAMPT [1] came out at 143 nM; on NAMPT [2], 0.629 nM; in the test on PC3 cells it was 68.1 nM.

On to `O=C(Nc1ccc(C2CN(C(=O)[C@@H]3CCCO3)C2)cc1)N1CC(c2cccnc2)C1` [Example 102, 3-(pyridin-3-yl)-N-(4-{1-[(2S)-tetrahydrofuran-2-ylcarbonyl]azetidin-3-yl}phenyl)azetidine-1-carboxamide], for which the IC50 on NAMPT [1] turned out to be 95.7 nM; on NAMPT [2], 0.286 nM; with PC3 cells it was 67.9 nM.

For the compound `O=C(Nc1ccc(C2CN(C(=O)[C@H]3CCCO3)C2)cc1)N1CC(c2cccnc2)C1` [Example 103, 3-(pyridin-3-yl)-N-(4-{1-[(2R)-tetrahydrofuran-2-ylcarbonyl]azetidin-3-yl}phenyl)azetidine-1-carboxamide], the IC50 on NAMPT [1] worked out at 296 nM; on NAMPT [2], 0.287 nM; with PC3 cells it was 98.1 nM.

For `O=C(Nc1ccc(C2CN(C(=O)C3CCOC3)C2)cc1)N1CC(c2cccnc2)C1` (stereo not drawn) [Example 104, 3-(pyridin-3-yl)-N-{4-[1-(tetrahydrofuran-3-ylcarbonyl)azetidin-3-yl]phenyl}azetidine-1-carboxamide], the IC50 on NAMPT [1] is 188 nM; on NAMPT [2], 0.389 nM; in the test with PC3 cells, 95.1 nM.

As to `O=C(CC1CC1)N1CC(c2ccc(NC(=O)N3CC(c4cccnc4)C3)cc2)C1` [Example 105, N-{4-[1-(cyclopropylacetyl)azetidin-3-yl]phenyl}-3-(pyridin-3-yl)azetidine-1-carboxamide], the IC50 on NAMPT [1] amounted to 68.3 nM; at NAMPT [2] it was 0.208 nM; with PC3 cells it was 60.9 nM.

`CC(C)(O)C(=O)N1CC(c2ccc(NC(=O)N3CC(c4cccnc4)C3)cc2)C1` [Example 106, N-{4-[1-(2-hydroxy-2-methylpropanoyl)azetidin-3-yl]phenyl}-3-(pyridin-3-yl)azetidine-1-carboxamide]: the IC50 at NAMPT [1] was determined as 204 nM; at NAMPT [2], 0.553 nM; in the test on PC3 cells, 576 nM.

The record behind these values is patent US9296723B2, “NAMPT inhibitors” (AbbVie Inc., priority 2012, dated 2016).
